pEC50: −log10 of the molar value.
Legend:
Test in all cases: EC50 assay: Ba/F3 stable cell proliferation (CCK-8, 72 h)
Assay type in all cases: cell-based
[1] = target: T1, Ba/F3 stable cells (Homo sapiens, UniProt P04626, DUP772-775, cells depend on it); conditions: Ba/F3-HER2 A775-G776insYVMA cells
T1 construct: EC50 Ba/F3-HER2 A775-G776insYVMA; other: Ba/F3-HER2 A775-G776insYVMA cells, 72 h, CCK-8
Summary of the method: (§1)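 Ba/F3 stable cells were seeded at 4,000 cells/90 μL/well in 96-well plates and held 2 h at 37° C. in 5% CO2, then given 10 μL of serially titrated compound (0.1% DMSO final). After 72 h at 37° C., CCK-8 reagent was added for 4 hours and absorbance read at 450 nm to derive EC50.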

[2] = target: T2, Ba/F3 stable cells (Homo sapiens, UniProt P00533, DUP771-773, cells depend on it); conditions: Ba/F3-EGFR H773-V774insNPH cells
T2 construct: EC50 Ba/F3-EGFR H773-V774insNPH; other: Ba/F3-EGFR H773-V774insNPH cells, 72 h, CCK-8
Summary of the method: as §1

[3] = target: T3, Ba/F3 stable cells (Homo sapiens, UniProt P00533, DUP767-769, cells depend on it); conditions: Ba/F3-EGFR V769-D770insASV cells
T3 construct: EC50 Ba/F3-EGFR V769-D770insASV; other: Ba/F3-EGFR V769-D770insASV cells, 72 h, CCK-8
Summary of the method: as §1

[4] = target: T4, Ba/F3 stable cells (Homo sapiens, UniProt P00533, DUP768-770, cells depend on it); conditions: Ba/F3-EGFR D770-N771insSVD cells
T4 construct: EC50 Ba/F3-EGFR D770-N771insSVD; other: Ba/F3-EGFR D770-N771insSVD cells, 72 h, CCK-8
Summary of the method: as §1

[5] = target: T5, Ba/F3 stable cells (Homo sapiens, UniProt P00533, INS763FQEA, cells depend on it); conditions: Ba/F3-EGFR A763-Y764insFQEA cells
T5 construct: EC50 Ba/F3-EGFR A763-Y764insFQEA; other: Ba/F3-EGFR A763-Y764insFQEA cells, 72 h, CCK-8
Summary of the method: as §1

[6] = target: T6, Ba/F3 stable cells (Homo sapiens, UniProt P00533, T790M/L858R, cells depend on it); conditions: Ba/F3-EGFR L858R-T790M cells
T6 construct: EC50 Ba/F3-EGFR L858R-T790M; other: Ba/F3-EGFR L858R-T790M cells, 72 h, CCK-8
Summary of the method: as §1

T1 sequence (P04626 with tags, fused parts or gaps DUP772-775): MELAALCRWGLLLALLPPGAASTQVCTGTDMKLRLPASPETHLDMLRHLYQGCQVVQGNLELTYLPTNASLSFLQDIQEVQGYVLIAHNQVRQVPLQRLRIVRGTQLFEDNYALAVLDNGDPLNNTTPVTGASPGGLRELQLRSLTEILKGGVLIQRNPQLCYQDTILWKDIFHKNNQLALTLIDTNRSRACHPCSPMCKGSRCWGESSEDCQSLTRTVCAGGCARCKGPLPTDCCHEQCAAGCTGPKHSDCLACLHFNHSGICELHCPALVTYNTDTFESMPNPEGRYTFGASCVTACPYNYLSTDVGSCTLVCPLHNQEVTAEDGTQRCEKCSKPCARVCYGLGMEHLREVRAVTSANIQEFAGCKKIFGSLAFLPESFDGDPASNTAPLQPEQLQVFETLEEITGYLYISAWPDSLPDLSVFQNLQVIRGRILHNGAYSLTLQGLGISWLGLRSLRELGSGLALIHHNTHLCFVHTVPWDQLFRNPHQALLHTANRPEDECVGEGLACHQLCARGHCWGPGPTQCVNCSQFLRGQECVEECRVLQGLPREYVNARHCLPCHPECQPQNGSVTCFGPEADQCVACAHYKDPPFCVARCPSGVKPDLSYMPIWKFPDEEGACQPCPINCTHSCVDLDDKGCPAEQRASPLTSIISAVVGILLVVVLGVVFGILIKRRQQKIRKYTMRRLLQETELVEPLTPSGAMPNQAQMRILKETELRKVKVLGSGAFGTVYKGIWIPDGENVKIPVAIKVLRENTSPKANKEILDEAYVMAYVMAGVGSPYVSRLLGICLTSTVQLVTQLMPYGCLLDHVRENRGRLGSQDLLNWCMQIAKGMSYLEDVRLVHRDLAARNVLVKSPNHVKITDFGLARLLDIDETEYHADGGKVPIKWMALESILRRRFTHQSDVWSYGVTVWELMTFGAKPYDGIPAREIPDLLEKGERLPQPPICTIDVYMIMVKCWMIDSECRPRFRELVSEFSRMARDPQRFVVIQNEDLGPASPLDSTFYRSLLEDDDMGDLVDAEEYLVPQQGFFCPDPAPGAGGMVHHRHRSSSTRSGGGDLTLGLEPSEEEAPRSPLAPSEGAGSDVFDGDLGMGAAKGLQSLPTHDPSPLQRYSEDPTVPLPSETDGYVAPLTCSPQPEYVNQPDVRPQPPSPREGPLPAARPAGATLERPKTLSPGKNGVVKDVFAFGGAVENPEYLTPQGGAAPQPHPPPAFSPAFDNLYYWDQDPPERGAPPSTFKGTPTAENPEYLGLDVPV
T5 sequence (P00533 with tags, fused parts or gaps INS763FQEA): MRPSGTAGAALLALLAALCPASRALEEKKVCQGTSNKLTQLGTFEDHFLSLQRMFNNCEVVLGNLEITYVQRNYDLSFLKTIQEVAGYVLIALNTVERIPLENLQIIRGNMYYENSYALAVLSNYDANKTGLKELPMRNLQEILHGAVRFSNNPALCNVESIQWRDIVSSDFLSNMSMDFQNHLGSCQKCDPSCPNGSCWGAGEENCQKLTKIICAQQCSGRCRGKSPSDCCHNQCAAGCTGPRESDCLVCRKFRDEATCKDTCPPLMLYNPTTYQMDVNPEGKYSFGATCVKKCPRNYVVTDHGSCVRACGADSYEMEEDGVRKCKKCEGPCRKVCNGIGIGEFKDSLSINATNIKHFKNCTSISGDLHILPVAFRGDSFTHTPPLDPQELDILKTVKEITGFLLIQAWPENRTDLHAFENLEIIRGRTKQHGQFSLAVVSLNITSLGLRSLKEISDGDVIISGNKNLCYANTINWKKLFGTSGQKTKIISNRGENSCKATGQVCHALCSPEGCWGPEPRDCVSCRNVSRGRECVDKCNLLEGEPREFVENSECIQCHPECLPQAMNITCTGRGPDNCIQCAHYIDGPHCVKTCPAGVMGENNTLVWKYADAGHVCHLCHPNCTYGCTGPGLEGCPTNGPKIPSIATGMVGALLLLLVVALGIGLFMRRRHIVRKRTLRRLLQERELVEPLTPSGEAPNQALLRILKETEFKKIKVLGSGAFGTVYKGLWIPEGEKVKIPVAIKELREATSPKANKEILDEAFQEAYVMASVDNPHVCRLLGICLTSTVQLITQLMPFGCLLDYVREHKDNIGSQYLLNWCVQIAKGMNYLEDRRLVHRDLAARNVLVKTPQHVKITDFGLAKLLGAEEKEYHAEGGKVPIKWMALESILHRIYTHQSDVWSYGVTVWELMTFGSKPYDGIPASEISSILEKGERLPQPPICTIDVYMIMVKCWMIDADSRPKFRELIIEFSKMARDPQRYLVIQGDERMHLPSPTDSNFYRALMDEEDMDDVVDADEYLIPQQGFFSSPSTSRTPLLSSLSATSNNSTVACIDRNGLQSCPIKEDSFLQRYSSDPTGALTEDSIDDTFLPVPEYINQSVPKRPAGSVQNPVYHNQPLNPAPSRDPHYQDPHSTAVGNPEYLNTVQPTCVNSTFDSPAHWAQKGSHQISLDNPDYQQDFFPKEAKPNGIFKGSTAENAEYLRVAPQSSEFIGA
T4 sequence (P00533 with tags, fused parts or gaps DUP768-770): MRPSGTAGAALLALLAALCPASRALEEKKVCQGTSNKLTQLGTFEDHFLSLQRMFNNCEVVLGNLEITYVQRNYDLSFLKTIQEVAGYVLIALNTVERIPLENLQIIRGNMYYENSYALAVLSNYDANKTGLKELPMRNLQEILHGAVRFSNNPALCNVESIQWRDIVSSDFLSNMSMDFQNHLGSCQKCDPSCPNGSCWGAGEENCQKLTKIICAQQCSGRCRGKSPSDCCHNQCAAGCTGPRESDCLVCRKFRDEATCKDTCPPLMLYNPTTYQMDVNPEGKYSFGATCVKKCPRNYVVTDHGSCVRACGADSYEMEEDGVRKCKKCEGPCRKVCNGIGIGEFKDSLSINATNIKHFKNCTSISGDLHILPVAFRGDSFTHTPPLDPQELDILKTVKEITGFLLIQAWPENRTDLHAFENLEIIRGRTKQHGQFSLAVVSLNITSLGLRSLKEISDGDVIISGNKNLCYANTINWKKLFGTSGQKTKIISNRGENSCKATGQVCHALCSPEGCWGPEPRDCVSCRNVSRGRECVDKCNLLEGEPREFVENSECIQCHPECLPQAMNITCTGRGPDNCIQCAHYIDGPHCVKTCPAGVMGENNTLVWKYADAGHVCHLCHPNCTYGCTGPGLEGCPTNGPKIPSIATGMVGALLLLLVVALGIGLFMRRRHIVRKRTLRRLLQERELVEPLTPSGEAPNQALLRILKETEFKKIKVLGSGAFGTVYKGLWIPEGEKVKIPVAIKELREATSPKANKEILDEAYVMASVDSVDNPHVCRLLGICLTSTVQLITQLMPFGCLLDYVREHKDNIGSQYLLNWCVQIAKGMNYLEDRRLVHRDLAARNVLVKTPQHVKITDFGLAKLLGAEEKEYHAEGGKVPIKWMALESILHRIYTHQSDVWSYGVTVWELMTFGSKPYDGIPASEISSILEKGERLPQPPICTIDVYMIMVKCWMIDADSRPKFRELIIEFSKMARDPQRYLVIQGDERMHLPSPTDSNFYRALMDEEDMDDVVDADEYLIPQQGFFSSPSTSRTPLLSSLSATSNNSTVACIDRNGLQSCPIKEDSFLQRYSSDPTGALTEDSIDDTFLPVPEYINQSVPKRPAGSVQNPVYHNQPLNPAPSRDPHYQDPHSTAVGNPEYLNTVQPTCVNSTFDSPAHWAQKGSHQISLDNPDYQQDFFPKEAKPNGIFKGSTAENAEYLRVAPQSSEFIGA
T6 sequence (P00533 whole entry T790M/L858R): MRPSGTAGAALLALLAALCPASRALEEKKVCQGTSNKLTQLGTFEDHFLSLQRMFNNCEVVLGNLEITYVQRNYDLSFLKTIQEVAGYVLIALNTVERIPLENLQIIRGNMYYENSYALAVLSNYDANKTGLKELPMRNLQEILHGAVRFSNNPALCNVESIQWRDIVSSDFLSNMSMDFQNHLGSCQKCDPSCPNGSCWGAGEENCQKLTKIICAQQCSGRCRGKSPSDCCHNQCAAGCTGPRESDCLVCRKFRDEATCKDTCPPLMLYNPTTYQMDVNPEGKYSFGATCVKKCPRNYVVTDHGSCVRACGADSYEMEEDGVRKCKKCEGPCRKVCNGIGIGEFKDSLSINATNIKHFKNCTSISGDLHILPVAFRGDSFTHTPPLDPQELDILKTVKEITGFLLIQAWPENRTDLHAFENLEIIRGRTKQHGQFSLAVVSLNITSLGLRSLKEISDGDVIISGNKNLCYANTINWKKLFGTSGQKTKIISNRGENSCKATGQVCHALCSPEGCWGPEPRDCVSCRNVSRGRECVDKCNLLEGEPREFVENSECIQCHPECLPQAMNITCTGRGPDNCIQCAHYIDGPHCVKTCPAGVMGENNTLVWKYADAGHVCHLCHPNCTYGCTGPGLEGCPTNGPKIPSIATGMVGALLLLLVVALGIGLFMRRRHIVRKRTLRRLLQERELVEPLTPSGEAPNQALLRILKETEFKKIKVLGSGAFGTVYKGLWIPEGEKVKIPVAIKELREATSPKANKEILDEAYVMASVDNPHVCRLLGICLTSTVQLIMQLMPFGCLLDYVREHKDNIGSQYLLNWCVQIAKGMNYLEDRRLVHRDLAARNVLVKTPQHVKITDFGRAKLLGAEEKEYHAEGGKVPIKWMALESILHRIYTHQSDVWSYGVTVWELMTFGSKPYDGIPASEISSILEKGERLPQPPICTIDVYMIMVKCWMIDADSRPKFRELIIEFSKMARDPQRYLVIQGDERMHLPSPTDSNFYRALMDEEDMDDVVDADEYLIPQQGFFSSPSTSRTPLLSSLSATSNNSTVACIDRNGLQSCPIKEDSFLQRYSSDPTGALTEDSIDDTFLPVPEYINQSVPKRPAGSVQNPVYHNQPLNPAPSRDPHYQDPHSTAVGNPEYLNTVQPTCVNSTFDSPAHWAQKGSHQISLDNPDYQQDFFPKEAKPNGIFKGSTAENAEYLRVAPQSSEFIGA

C=CC(=O)NC1CC(Oc2cc3c(Nc4ccc(Cl)c(Cl)c4)ncnc3cc2OC)C1 (stereo not drawn) [Compound 73, N-(3-((4-((3,4-dichlorophenyl)amino)-7-methoxyquinazolin-6-yl)oxy)cyclobutyl)acrylamide]
pEC50 [1]: 6.00 to 6.70 | pEC50 [2]: 6.00 to 6.70 | pEC50 [3]: ≥ 6.70 | pEC50 [4]: 6.00 to 6.70 | pEC50 [5]: ≥ 6.70 | pEC50 [6]: < 6.00

C=CC(=O)NC1CC(Oc2cc3c(Nc4cccc(Cl)c4F)ncnc3cc2OC)C1 (stereo not drawn) [Compound 74, N-(3-((4-((3-chloro-2-fluorophenyl)amino)-7-methoxyquinazolin-6-yl)oxy)cyclobutyl)acrylamide]
pEC50 [1]: ≥ 6.70 | pEC50 [2]: ≥ 6.70 | pEC50 [3]: ≥ 6.70 | pEC50 [4]: 6.00 to 6.70 | pEC50 [5]: ≥ 6.70 | pEC50 [6]: 6.00 to 6.70

C=CC(=O)NC1CC(Oc2cc3c(Nc4ccc(Cl)c(F)c4Cl)ncnc3cc2OC)C1 (stereo not drawn) [Compound 75, N-(3-((4-((2,4-dichloro-3-fluorophenyl)amino)-7-methoxyquinazolin-6-yl)oxy)cyclobutyl)acrylamide]
pEC50 [1]: 6.00 to 6.70 | pEC50 [2]: 6.00 to 6.70 | pEC50 [3]: 6.00 to 6.70 | pEC50 [4]: < 6.00 | pEC50 [5]: ≥ 6.70 | pEC50 [6]: 6.00 to 6.70

C=CC(=O)NC1CC(Oc2cc3c(Nc4ccc(F)c(Cl)c4Cl)ncnc3cc2OC)C1 (stereo not drawn) [Compound 76, N-(3-((4-((2,3-dichloro-4-fluorophenyl)amino)-7-methoxyquinazolin-6-yl)oxy)cyclobutyl)acrylamide]
pEC50 [1]: 6.00 to 6.70 | pEC50 [2]: 6.00 to 6.70 | pEC50 [3]: ≥ 6.70 | pEC50 [4]: 6.00 to 6.70 | pEC50 [5]: ≥ 6.70 | pEC50 [6]: < 6.00

C=CC(=O)N[C@H]1C[C@H](Oc2cc3c(Nc4ccccc4F)ncnc3cc2OC)C1 [Compound 77, N-(3-((4-((2-fluorophenyl)amino)-7-methoxyquinazolin-6-yl)oxy)cyclobutyl)acrylamide]
pEC50 [1]: 6.00 to 6.70 | pEC50 [2]: 6.00 to 6.70 | pEC50 [3]: 6.00 to 6.70 | pEC50 [4]: < 6.00 | pEC50 [5]: ≥ 6.70 | pEC50 [6]: < 6.00

C=CC(=O)NC1CC(Oc2cc3c(Nc4ccc(Cl)cc4F)ncnc3cc2OC)C1 (stereo not drawn) [Compound 78, N-(3-((4-((4-chloro-2-fluorophenyl)amino)-7-methoxyquinazolin-6-yl)oxy)cyclobutyl)acrylamide]
pEC50 [1]: 6.00 to 6.70 | pEC50 [2]: 6.00 to 6.70 | pEC50 [3]: ≥ 6.70 | pEC50 [4]: < 6.00 | pEC50 [5]: ≥ 6.70 | pEC50 [6]: < 6.00

C=CC(=O)N[C@H]1C[C@H](Oc2cc3c(Nc4ccc(Cl)c(Cl)c4F)ncnc3cc2OC)C1 [Compound 79, N-((1r,3r)-3-((4-((3,4-dichloro-2-fluorophenyl)amino)-7-methoxyquinazolin-6-yl)oxy)cyclobutyl)acrylamide]
pEC50 [1]: 6.00 to 6.70 | pEC50 [2]: 6.00 to 6.70 | pEC50 [3]: ≥ 6.70 | pEC50 [4]: < 6.00 | pEC50 [5]: ≥ 6.70 | pEC50 [6]: < 6.00

C=CC(=O)NC1CC(Oc2cc3c(Nc4ccc5ccccc5c4)ncnc3cc2OC)C1 (stereo not drawn) [Compound 80, N-(3-((7-methoxy-4-(naphthalen-2-ylamino)quinazolin-6-yl)oxy)cyclobutyl)acrylamide]
pEC50 [1]: < 6.00 | pEC50 [2]: < 6.00 | pEC50 [3]: < 6.00 | pEC50 [4]: < 6.00 | pEC50 [5]: ≥ 6.70 | pEC50 [6]: < 6.00

C=CC(=O)NC1CC(Oc2cc3c(Nc4cccc5ccccc45)ncnc3cc2OC)C1 (stereo not drawn) [Compound 81, N-(3-((7-methoxy-4-(naphthalen-1-ylamino)quinazolin-6-yl)oxy)cyclobutyl)acrylamide]
pEC50 [1]: 6.00 to 6.70 | pEC50 [2]: 6.00 to 6.70 | pEC50 [3]: ≥ 6.70 | pEC50 [4]: ≥ 6.70 | pEC50 [5]: ≥ 6.70 | pEC50 [6]: 6.00 to 6.70

C=CC(=O)N[C@H]1C[C@@H](Oc2cc3c(Nc4ccc(Cl)c(Cl)c4)ncnc3cc2OC)C1 [Compound 82, N-((1s,3s)-3-((4-((3,4-dichlorophenyl)amino)-7-methoxyquinazolin-6-yl)oxy)cyclobutyl)acrylamide]
pEC50 [1]: 6.00 to 6.70 | pEC50 [2]: 6.00 to 6.70 | pEC50 [3]: ≥ 6.70 | pEC50 [4]: 6.00 to 6.70 | pEC50 [5]: ≥ 6.70 | pEC50 [6]: 6.00 to 6.70

C=CC(=O)N[C@H]1C[C@@H](Oc2cc3c(Nc4cccc5ccccc45)ncnc3cc2OC)C1 [Compound 83, N-((1s,3s)-3-((7-methoxy-4-(naphthalen-1-ylamino)quinazolin-6-yl)oxy)cyclobutyl)acrylamide]
pEC50 [1]: 6.00 to 6.70 | pEC50 [2]: ≥ 6.70 | pEC50 [3]: ≥ 6.70 | pEC50 [4]: 6.00 to 6.70 | pEC50 [5]: ≥ 6.70 | pEC50 [6]: 6.00 to 6.70

C=CC(=O)NC1CC(Oc2cc3c(NCc4ccc(F)cc4)ncnc3cc2OC)C1 (stereo not drawn) [Compound 84, N-(3-((4-((4-fluorobenzyl)amino)-7-methoxyquinazolin-6-yl)oxy)cyclobutyl)acrylamide]
pEC50 [1]: < 6.00 | pEC50 [2]: < 6.00 | pEC50 [3]: 6.00 to 6.70 | pEC50 [4]: < 6.00 | pEC50 [5]: ≥ 6.70 | pEC50 [6]: < 6.00

C=CC(=O)NC1CC(Oc2cc3c(Nc4ccc(F)c(Cl)c4)ncnc3cc2OC)C1 (stereo not drawn) [Compound 85, N-(3-((4-((3-chloro-4-fluorophenyl)amino)-7-methoxyquinazolin-6-yl)oxy)cyclobutyl)acrylamide]
pEC50 [1]: < 6.00 | pEC50 [2]: < 6.00 | pEC50 [3]: 6.00 to 6.70 | pEC50 [4]: < 6.00 | pEC50 [5]: ≥ 6.70 | pEC50 [6]: < 6.00

C=CC(=O)N[C@H]1C[C@H](Oc2cc3c(Nc4ccc(C#N)c(Cl)c4)ncnc3cc2OC)C1 [Compound 86, N-(3-((4-((3-chloro-4-cyanophenyl)amino)-7-methoxyquinazolin-6-yl)oxy)cyclobutyl)acrylamide]
pEC50 [1]: < 6.00 | pEC50 [2]: < 6.00 | pEC50 [3]: < 6.00 | pEC50 [4]: < 6.00 | pEC50 [5]: 6.00 to 6.70 | pEC50 [6]: < 6.00

C=CC(=O)NC1CC(Oc2cc3c(Nc4ccc(F)c(C#N)c4)ncnc3cc2OC)C1 (stereo not drawn) [Compound 87, N-(3-((4-((3-cyano-4-fluorophenyl)amino)-7-methoxyquinazolin-6-yl)oxy)cyclobutyl)acrylamide]
pEC50 [1]: < 6.00 | pEC50 [2]: < 6.00 | pEC50 [3]: < 6.00 | pEC50 [4]: < 6.00 | pEC50 [5]: 6.00 to 6.70 | pEC50 [6]: < 6.00

C=CC(=O)NC1CC(Oc2cc3c(Nc4cccc5c4CCC5)ncnc3cc2OC)C1 (stereo not drawn) [Compound 88, N-(3-((4-((2,3-dihydro-1H-inden-4-yl)amino)-7-methoxyquinazolin-6-yl)oxy)cyclobutyl)acrylamide]
pEC50 [1]: < 6.00 | pEC50 [2]: < 6.00 | pEC50 [3]: < 6.00 | pEC50 [4]: < 6.00 | pEC50 [5]: 6.00 to 6.70 | pEC50 [6]: < 6.00

C=CC(=O)NC1CC(Oc2cc3c(Nc4cccc5c4CCCC5)ncnc3cc2OC)C1 (stereo not drawn) [Compound 89, N-(3-((7-methoxy-4-((5,6,7,8-tetrahydronaphthalen-1-yl)amino)quinazolin-6-yl)oxy)cyclobutyl)acrylamide]
pEC50 [1]: < 6.00 | pEC50 [2]: < 6.00 | pEC50 [3]: < 6.00 | pEC50 [4]: < 6.00 | pEC50 [5]: 6.00 to 6.70 | pEC50 [6]: < 6.00

C=CC(=O)N[C@H]1CC[C@@H](Oc2cc3c(Nc4ccc(Cl)c(Cl)c4F)ncnc3cc2OC)CC1 [Compound 90, N-((1s,4s)-4-((4-((3,4-dichloro-2-fluorophenyl)amino)-7-methoxyquinazolin-6-yl)oxy)cyclohexyl)acrylamide]
pEC50 [1]: < 6.00 | pEC50 [2]: 6.00 to 6.70 | pEC50 [3]: ≥ 6.70 | pEC50 [4]: < 6.00 | pEC50 [5]: ≥ 6.70 | pEC50 [6]: < 6.00

C=CC(=O)N[C@H]1CC[C@H](Oc2cc3c(Nc4ccc(Cl)c(Cl)c4F)ncnc3cc2OC)CC1 [Compound 91, N-((1r,4r)-4-((4-((3,4-dichloro-2-fluorophenyl)amino)-7-methoxyquinazolin-6-yl)oxy)cyclohexyl)acrylamide]
pEC50 [1]: 6.00 to 6.70 | pEC50 [2]: 6.00 to 6.70 | pEC50 [3]: 6.00 to 6.70 | pEC50 [4]: 6.00 to 6.70 | pEC50 [5]: ≥ 6.70 | pEC50 [6]: < 6.00

C=CC(=O)NC1CC(Nc2cc3c(Nc4ccc(Cl)c(Cl)c4F)ncnc3cc2OC)C1 (stereo not drawn) [Compound 92, N-(3-((4-((3,4-dichloro-2-fluorophenyl)amino)-7-methoxyquinazolin-6-yl)amino)cyclobutyl)acrylamide]
pEC50 [1]: ≥ 6.70 | pEC50 [2]: ≥ 6.70 | pEC50 [3]: ≥ 6.70 | pEC50 [4]: 6.00 to 6.70 | pEC50 [5]: ≥ 6.70 | pEC50 [6]: 6.00 to 6.70

C=CC(=O)N1CCC(Oc2cc3c(C(=O)NCc4ccc(F)cc4)ncnc3cc2OC)CC1 [Compound 94, 6-((1-acryloylpiperidin-4-yl)oxy)-N-(4-fluorobenzyl)-7-methoxyquinazoline-4-carboxamide]
pEC50 [1]: < 6.00 | pEC50 [2]: < 6.00 | pEC50 [3]: < 6.00 | pEC50 [4]: < 6.00 | pEC50 [5]: ≥ 6.70 | pEC50 [6]: < 6.00

— patent US20250243171A1, “QUINAZOLINE COMPOUNDS FOR TREATMENT OF DISEASE” (Arthrosi Therapeutics, Inc., priority 2021, published 2025)
